Laboratory results as given in patent US20110165652A1, “COMPOSITIONS, METHODS AND SYSTEMS FOR SINGLE MOLECULE SEQUENCING” (LIFE TECHNOLOGIES CORPORATION, priority 2008, published 2011).

Experiments:
Assay type in all cases: biochemical
[1] = test system: 5′ fluorescein-labeled primer:template duplex; assay: Ensemble primer extension with gamma-labeled dNTP by Phi29 mutant protein; conditions: for Ensemble Extension Activity (polymerase active): cysteine to serine variants; for Ensemble Extension Activity: γ-nucleotide incorporation / Ensemble Extension Activity: activity with base-labeled nucleotides: relative to parent Phi29 exo(−) D12A/D66A; for Ensemble Extension Activity: γ-nucleotide incorporation: 0.5 μM or 5 μM gamma-labeled dNTP, 10 seconds to 5 minutes
Source text: Table 1, below, summarizes the ability of each mutant Phi29 polymerase to incorporate gamma-labeled nucleotides (as indicated in the column entitled “Ensemble Extension Activity”), fidelity of replication (as indicated in the column entitled “Fidelity”) and for activity in a single-molecule detected system, as depicted in FIGS. 20-59′ and 69-76 and associated description (see below), and indicated in the last column, entitled “Activity on Detection System.” Each and every mutation introduced into a given Phi29 mutant protein is listed in the column entitled “Mutations”; mutations are designated by the original amino acid/its position/its replacement, e.g., V250A means that valine at position 250 was replaced by alanine by site specific mutagenesis. If two or more amino acid substitutions are made, then each is designated as above and separated by a “/”. The predicted effect of a given mutation on polymerase activity, based on structure-function analysis of Phi29 polymerase, is provided in the column entitled “Expected Effect.” The various Phi29 mutants generated via selective mutagenesis, along with any applicable results of extension studies, fidelity assays and single molecule detection studies using each mutant protein, are collectively summarized in Table 1, below. To perform the extension studies, 330 nM Phi29 mutant protein and 100 nM 5′ fluorescein-labeled primer:template duplex were co-incubated in a solution comprising 50 mM Tris (pH 7.0), 2 mM MnCl2, 2 mM DTT, 0.1% Triton-X-100, 0.01% Tween-20. The reactions were initiated by addition of 0.5 μM or 5 μM of gamma-labeled dNTP, and quenched via addition of 30 mM EDTA at timepoints ranging from 10 seconds to 5 minutes. The reaction products were then separated on a 20% denaturing acrylamide gel and imaged on a Bio-Rad Molecular Imager FX. The intensity of each reaction product was quantified using Bio-Rad Quantity One software. FIGS. 20-59′ depict the results of extension studies conducted using specific Phi29 mutants.

[2] = test system: template specifying incorporation of a single γ-labeled nucleotide; assay: Real time on-surface single molecule detection of γ-labeled nucleotide incorporation; conditions: for Activity on Detection System: more signals: number of signals relative to parent enzyme
Method: Real time “On surface” experiments were performed to characterize the activity of the Phi29 variants on an exemplary single molecule sequencing system (FIGS. 72A and B). Chambered slides were prepared to facilitate injection and multiple experiments data collection from several chambers using a single slide. The template specified incorporation of a single γ-labeled nucleotide. The samples were excited using a 488 nm Argon ion laser at 2.5 mW and the data were collected at 25 ms integration time. Each stream of data was collected for 1500 frames, consecutive streams were collected for ˜5 minutes by moving to new fields of views (FOVs). FRETAN software was used to obtain the donor and acceptor traces.
After trace analysis, the selected signals (with acceptor signal over background greater than 4, i.e., ASN≧4) were characterized by examining attributes including duration, ASN and timing of signal appearance (i.e., start of signals). The variants that are of special interest include Variants 2 and 3.

[3] = test system: 5′ fluorescein-labeled primer:template duplex; assay: Replication fidelity: primer extension with incorrect (non-complementary) gamma-labeled nucleotide; conditions: incorrect gamma-labeled nucleotide in lieu of the complementary one
Method: To assay the replication fidelity of each mutant Phi29 polymerase protein, primer extensions were carried out in the same manner, except that an incorrect (i.e., non-complementary) gamma-labeled nucleotide was added to the extension mixture in lieu of the complementary nucleotide, and the amount of extended product following extension in presence of the incorrect nucleotide was analyzed.

## C22S/C290S/C448S: Phi29 exo(−) (D12A/D66A) polymerase mutant
[1]
  Ensemble Extension Activity (polymerase active): Slightly less

## C22S/C290S/C530S: Phi29 exo(−) (D12A/D66A) polymerase mutant
[1]
  Ensemble Extension Activity (polymerase active): Slightly less

## C22S/C448S/C530S: Phi29 exo(−) (D12A/D66A) polymerase mutant
[1]
  Ensemble Extension Activity (polymerase active): Slightly less

## C22S: Phi29 exo(−) (D12A/D66A) polymerase mutant [Variant C22S]
[1]
  Ensemble Extension Activity (polymerase active): Active

## C290S/C448S/C530S: Phi29 exo(−) (D12A/D66A) polymerase mutant
[1]
  Ensemble Extension Activity (polymerase active): Slightly less

## C290S: Phi29 exo(−) (D12A/D66A) polymerase mutant [Variant C290S]
[1]
  Ensemble Extension Activity (polymerase active): Active

## C448S: Phi29 exo(−) (D12A/D66A) polymerase mutant [Variant C448S]
[1]
  Ensemble Extension Activity (polymerase active): Active

## C530S: Phi29 exo(−) (D12A/D66A) polymerase mutant [Variant C530S]
[1]
  Ensemble Extension Activity (polymerase active): Active

## D456S: Phi29 exo(−) (D12A/D66A) polymerase mutant [Variant D456S]
[2]
  Activity on Detection System: more signals: Fewer signals.
[1]
  Ensemble Extension Activity: γ-nucleotide incorporation: Impaired

## D458N: Phi29 exo(−) (D12A/D66A) polymerase mutant [Variant D458N]
[3]
  Fidelity (mis-incorporation): No activity
[1]
  Ensemble Extension Activity: γ-nucleotide incorporation: No activity

## E375A/Q380A: Phi29 exo(−) (D12A/D66A) polymerase mutant
[2]
  Activity on Detection System: more signals: 3.5x more signals.
[1]
  Ensemble Extension Activity: γ-nucleotide incorporation: More efficient

## E375C: Phi29 exo(−) (D12A/D66A) polymerase mutant [Variant E375C]
[2]
  Activity on Detection System: more signals: Slightly higher
[2]; relative to parent enzyme
  Activity on Detection System: Signals detected (timing of appearance): earlier.
  Activity on Detection System: high ASB signals: More high ASB signals.
[1]
  Ensemble Extension Activity: γ-nucleotide incorporation: More efficient

## E375W: Phi29 exo(−) (D12A/D66A) polymerase mutant [Variant E375W]
[1]
  Ensemble Extension Activity: γ-nucleotide incorporation: Increased γ-nucleotide

## E375Y/V250C: Phi29 exo(−) (D12A/D66A) polymerase mutant
[1]
  Ensemble Extension Activity: γ-nucleotide incorporation: decreased

## E375Y/V250D: Phi29 exo(−) (D12A/D66A) polymerase mutant
[1]
  Ensemble Extension Activity: γ-nucleotide incorporation: no activity

## E375Y/V250G: Phi29 exo(−) (D12A/D66A) polymerase mutant
[1]
  Ensemble Extension Activity: γ-nucleotide incorporation: no activity

## E375Y/V250H: Phi29 exo(−) (D12A/D66A) polymerase mutant
[1]
  Ensemble Extension Activity: γ-nucleotide incorporation: decreased rate

## E375Y/V250K: Phi29 exo(−) (D12A/D66A) polymerase mutant
[1]
  Ensemble Extension Activity: γ-nucleotide incorporation: no activity

## E375Y/V250L: Phi29 exo(−) (D12A/D66A) polymerase mutant
[1]
  Ensemble Extension Activity: γ-nucleotide incorporation: decreased

## E375Y/V250P: Phi29 exo(−) (D12A/D66A) polymerase mutant
[1]
  Ensemble Extension Activity: γ-nucleotide incorporation: no activity

## E375Y/V250Q: Phi29 exo(−) (D12A/D66A) polymerase mutant
[1]
  Ensemble Extension Activity: γ-nucleotide incorporation: decreased

## E375Y/V250R: Phi29 exo(−) (D12A/D66A) polymerase mutant
[1]
  Ensemble Extension Activity: γ-nucleotide incorporation: no activity

## E375Y/V250S: Phi29 exo(−) (D12A/D66A) polymerase mutant
[1]
  Ensemble Extension Activity: γ-nucleotide incorporation: decreased

## E375Y/V250T: Phi29 exo(−) (D12A/D66A) polymerase mutant
[1]
  Ensemble Extension Activity: γ-nucleotide incorporation: decreased

## E375Y/V250W: Phi29 exo(−) (D12A/D66A) polymerase mutant
[1]
  Ensemble Extension Activity: γ-nucleotide incorporation: no activity

## E375Y: Phi29 exo(−) (D12A/D66A) polymerase mutant [Variant E375Y]
[2]
  Activity on Detection System: more signals: 3x more signals.
[2]; relative to parent enzyme
  Activity on Detection System: long duration signals: More long duration
[1]; ensemble PAGE analyses, γ-nucleotides
  extension (FIG. 70C, 70D): most significant increase in extension
[1]
  Ensemble Extension Activity: γ-nucleotide incorporation: More efficient

## E486A: Phi29 exo(−) (D12A/D66A) polymerase mutant [Variant E486A]
[1]
  Ensemble Extension Activity: γ-nucleotide incorporation: Slightly decreased γ-

## E486D: Phi29 exo(−) (D12A/D66A) polymerase mutant [Variant E486D]
[1]
  Ensemble Extension Activity: γ-nucleotide incorporation: Decreased γ-nucleotide

## K371A: Phi29 exo(−) (D12A/D66A) polymerase mutant [Variant K371A]
[1]
  Ensemble Extension Activity: γ-nucleotide incorporation: Slightly lower than

## K371T: Phi29 exo(−) (D12A/D66A) polymerase mutant [Variant K371T]
[1]
  Ensemble Extension Activity: γ-nucleotide incorporation: Slightly lower than

## K383A: Phi29 exo(−) (D12A/D66A) polymerase mutant [Variant K383A]
[1]
  Ensemble Extension Activity: γ-nucleotide incorporation: Slightly lower than

## K383P: Phi29 exo(−) (D12A/D66A) polymerase mutant [Variant K383P]
[1]
  Ensemble Extension Activity: γ-nucleotide incorporation: decreased γ-nucleotide

## K383R: Phi29 exo(−) (D12A/D66A) polymerase mutant [Variant K383R]
[1]
  Ensemble Extension Activity: γ-nucleotide incorporation: Slightly lower than

## K478A: Phi29 exo(−) (D12A/D66A) polymerase mutant [Variant K478A]
[1]
  Ensemble Extension Activity: γ-nucleotide incorporation: Decreased γ-nucleotide

## K512A: Phi29 exo(−) (D12A/D66A) polymerase mutant [Variant K512A]
[1]
  Ensemble Extension Activity: γ-nucleotide incorporation: Slightly decreased γ-

## L384R: Phi29 exo(−) (D12A/D66A) polymerase mutant [Variant L384R]
[1]
  Ensemble Extension Activity: γ-nucleotide incorporation: Slightly decreased γ-

## N387A: Phi29 exo(−) (D12A/D66A) polymerase mutant [Variant N387A]
[2]
  Activity on Detection System: more signals: Fewer signals.
[1]
  Ensemble Extension Activity: γ-nucleotide incorporation: Significantly decreased γ-

## N387Y: Phi29 exo(−) (D12A/D66A) polymerase mutant [Variant N387Y]
[1]
  Ensemble Extension Activity: γ-nucleotide incorporation: Significantly decreased γ-

## S388G: Phi29 exo(−) (D12A/D66A) polymerase mutant [Variant S388G]
[1]
  Ensemble Extension Activity: γ-nucleotide incorporation: Decreased γ-nucleotide

## V250A/E375A/Q380A/D456E: Phi29 exo(−) (D12A/D66A) polymerase mutant
[1]
  Ensemble Extension Activity: γ-nucleotide incorporation: Impaired

## V250I/E375A/Q380A: Phi29 exo(−) (D12A/D66A) polymerase mutant
[1]
  Ensemble Extension Activity: γ-nucleotide incorporation: Decreased rate

## V250I/E375C: Phi29 exo(−) (D12A/D66A) polymerase mutant
[1]
  Ensemble Extension Activity: γ-nucleotide incorporation: Decreased rate

## V250I/E375Y: Phi29 exo(−) (D12A/D66A) polymerase mutant
[1]
  Ensemble Extension Activity: γ-nucleotide incorporation: Decreased rate

## V250I: Phi29 exo(−) (D12A/D66A) polymerase mutant [Variant V250I]
[2]; relative to parent enzyme
  Activity on Detection System: long duration signals: More long duration
[1]
  Ensemble Extension Activity: γ-nucleotide incorporation: Decreased rate

## Y254F: Phi29 exo(−) (D12A/D66A) polymerase mutant [Variant Y254F]
[1]
  Ensemble Extension Activity: activity with base-labeled nucleotides: incorporation, but increased
  Ensemble Extension Activity: γ-nucleotide incorporation: Decreased γ-nucleotide

## Y254V: Phi29 exo(−) (D12A/D66A) polymerase mutant [Variant Y254V]
[1]
  Ensemble Extension Activity: activity with base-labeled nucleotides: incorporation, but increased
  Ensemble Extension Activity: γ-nucleotide incorporation: Decreased γ-nucleotide
